In US11597745B2, “β-modified phosphoric acid compound precursor, β-modified phosphoric acid compound, reaction inhibitor and medicine containing the same, and method for inhibiting reaction” (priority 2018, dated 2023):

Assays:
[1] = test system: HIV-1 (NL4-3) WT; experiment: Anti-HIV activity measurement, TZM-bl cells, luciferase; format: cell-based; settings: for EC50: Human immunodeficiency virus 1, NL43, TZM-bl, read-out: EC50 for HIV
Method: (§1) TZM-bl cells were cultured in a medium in which fetal bovine serum (Japan Bio Serum) having a final concentration of 10% had been added into Dulbecco's modified Eagle's Medium (DMEM) (SIGMA/Cat. No. D5796), under the conditions of 37° C. and 5% CO2. TZM-bl cells were plated in a 96-well microplate (1.3×10^4 cells/100 μL DMEM+10% FBS). On the following day, a drug solution, and HIV-1 (NL4-3, 10 ng) were added to the culture medium in this order. After two days, […] of culture supernatant was removed, 100 μL of 1×Steady Glo (Promega/Cat. No. E2510) was added into the resultant medium, luciferase in 80 μL of scraped cell lysate was quantified with a dedicated plate (Coster/Cat. No. 3912) IESEL, VERITAS Microplate Luminometer (Promega), and the anti-HIV-1 activity (EC50) of the drug was calculated. Experiments were performed on multiple compounds by using various types of viruses. In Table (A), the “AZT” means azidothymidine, the “Lamivudine” means lamivudine, and the “Didanosine” means didanosine.

[2] = test system: HIV M184V; experiment: as above; format: cell-based, HIV-1; settings: Human immunodeficiency virus 1, TZM-bl, read-out: EC50 for HIV
Method: as §1

[3] = test system: HIV M41L/T215Y; experiment: as above; format: cell-based, HIV-1; settings: Human immunodeficiency virus 1, TZM-bl, read-out: EC50 for HIV
Method: as §1

[4] = test system: HIV M41L/T69SSG/T215Y; experiment: as above; format: cell-based, HIV-1; settings: for EC50: Human immunodeficiency virus 1, TZM-bl, read-out: EC50 for HIV
Method: as §1

[5] = test system: HBV (genotype C) in EB-HBCe cells; experiment: Anti-HBV activity: HBV DNA of viral particles in culture supernatant of EB-HBCe cells by qPCR; format: cell-based, hepatitis B virus; settings: FIG. 5; for anti-HBV activity (HBV DNA): various final concentrations, 9 days, activity higher at higher concentration
Method: A cell line EB-HBCe, which is derived from a human liver cancer cell HuH-7 and in which the HBV genome (genotype C) constantly replicates, was plated in a 24-well plate, respective compound were added at various final concentrations into the plate, and the cell line EB-HBCe was cultured for 9 days. During the culture, the medium was replaced with new one and the above compounds were added at the same concentration into the plate, every three days.
The culture supernatant was collected, the viral particles were precipitated by the addition of a PNE solution (8.45% PEG 6000, 0.445 M NaCl, 13 mM EDTA), and then the nucleic acids outside the particles were removed by the treatment with DNase I (TAKARA BIO INC.) and RNase A (TAKARA BIO INC.) at 37° C. for 1 hour. Further, after the overnight treatment with Proteinase K, the DNA was extracted with phenol/chloroform, and precipitated with ethanol. The precipitate was solubilized, and then the HBV DNA was quantitatively measured by using SYBR qPCR Mix Kit (TOYOBO CO., LTD.). In FIG. 5, the “SelenoA” indicates the results of addition of compound 13, and the “entecavir” indicates the result of addition of entecavir.

[6] = Cytotoxicity evaluation, MTT assay; format: cell-based; settings: human; MT-4 cells, MTT, 5th day of culture
Method: (§2) In MTT assay, Celltiter 96 Non-radioactive Cell Proliferation Assay (Promega) was used. MT-4 cells were infected with HIV-1 NL4-3 at multiplicity of infection (MOI)=0.001. HIV-1-infected (37° C., 1-1.5 hours) or -uninfected MT-4 cells (2.5×10^5/ml, 100 μL) were aliquoted into a 96-well microplate (final DMSO concentration: 0.5%), and the culture was started at 37° C. and 5% CO2. On the 5th day of the culture, the culture supernatant (100 μL) was removed, 15 μL of dye solution (MTT reagent) was added into each well, and the cells were cultured in a CO2 incubator for 1 hour. Subsequently, 100 μL of solubilization solution/stop mix was added into each well, mixed sufficiently, and the obtained mixture was left to stand at 4° C. overnight. After returning the temperature of the plate to room temperature, DD570/690 was measured with a spectrophotometer (BIO-TEK ELx808, CC50).

[7] = test system: MT-4 cells; experiment: Cytotoxicity evaluation, MTT assay; format: cell-based; settings: comparison in words from Table 1 (B)
Method: as §2

Row | Structure (SMILES) | EC50 [1] | EC50 [2] | EC50 [3] | EC50 [4] | anti-HBV activity (HBV DNA) [5] | anti-HBV activity, ranking among SelenoA, Pro SelenoA and Pro A ([5]; concentration of addition 10 μM) | anti-HIV activity compared with Lamivudine and Didanosine ([1]; comparison in words from Table 1 (A), all virus types) | anti-HIV activity compared with AZT ([4]; HIV-type M41L/T69SSG/T215Y, comparison in words from Table 1 (A)) | CC50 at 5 day [6] | toxicity compared with AZT [7]
1 | O=c1[nH]cnc2c1ncn2[C@H]1CC[C@@H](CO)O1 [Didanosine, didanosine, reference compound] | 3200 nM | 8.3 µM | 5600 nM | 17 µM | – | – | – | – | – | –
2 | Nc1ncnc2c1ncn2[C@@H]1O[C@H](CO)[C@@H](O)[C@H]1[SeH] [SelenoA, Seleno adenosine] | – | – | – | – | showed anti-HBV activity | – | – | – | – | –
3 | C[Se]C1[C@@H](O)[C@@H](COP(O)(=N[C@@H](C)C(=O)OC(C)C)Oc2ccccc2)O[C@H]1n1cnc2c(N)ncnc21 (some centres unmarked) [Pro SelenoA] | 980 nM | 2 µM | 1300 nM | 1.4 µM | showed anti-HBV activity | highest anti-HBV activity among these three kinds | higher anti-HIV activity | more excellent anti-HIV activity | > 100 µM | lower
4 | CCCSSC1[C@@H](O)[C@@H](COP(O)(=N[C@@H](C)C(=O)OC(C)C)Oc2ccccc2)O[C@H]1n1cnc2c(N)ncnc21 (some centres unmarked) [Pro A] | – | – | – | – | showed anti-HBV activity | – | – | – | – | –
5 | Nc1ccn([C@@H]2CS[C@H](CO)O2)c(=O)n1 [Lamivudine, lamivudine, reference compound] | 1200 nM | > 100 µM | 1700 nM | 24 µM | – | – | – | – | – | –
